Key:
Experiment in all cases: Post-emergence efficacy, glasshouse spray test
Assay type in all cases: in vivo
[1] = system: Setaia fabei (SETFA); settings: Setaria faberi, post-emergence, 312 h; Application Rate 500 g/Ha; evaluated after 13 days; read-out: Control of weed species after post-emergence application, SETFA (100=total damage to plant; 0=no damage to plant)
Summary of the method: (§1)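 Pot-grown plants sprayed 14 days after sowing, held in glasshouse at 24/16° C day/night, 14 h light, 65% humidity. Active formulated in acetone plus IF50 as 50 g/l stock, diluted in 0.25% or 1% Empicol ESC70 + 1% ammonium sulphate. Damage scored after 13 days, 0 (none) to 100 (total).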

[2] = system: Ipomoea hederacea (IPOHE); settings: Ipomoea hederacea, post-emergence, 312 h; Application Rate 500 g/Ha; evaluated after 13 days; read-out: Control of weed species after post-emergence application, IPOHE (100=total damage to plant; 0=no damage to plant)
Summary of the method: as §1

[3] = system: Amaranthus palmeri (AMAPA); settings: Amaranthus palmeri, post-emergence, 312 h; Application Rate 500 g/Ha; evaluated after 13 days; read-out: Control of weed species after post-emergence application, AMAPA (100=total damage to plant; 0=no damage to plant)
Summary of the method: as §1

[4] = system: Euphorbia heterophylla (EPHHL); settings: Euphorbia heterophylla, post-emergence, 312 h; Application Rate 500 g/Ha; evaluated after 13 days; read-out: Control of weed species after post-emergence application, EPHHL (100=total damage to plant; 0=no damage to plant)
Summary of the method: as §1

[5] = system: Echinochloa crus-galli (ECHCG); settings: Echinochloa crus-galli, post-emergence, 312 h; Application Rate 500 g/Ha; evaluated after 13 days; read-out: Control of weed species after post-emergence application, ECHCG (100=total damage to plant; 0=no damage to plant)
Summary of the method: as §1

[6] = system: Lolium perenne (LOLPE); settings: Lolium perenne, post-emergence, 312 h; Application Rate 500 g/Ha; evaluated after 13 days; read-out: Control of weed species after post-emergence application, LOLPE (100=total damage to plant; 0=no damage to plant)
Summary of the method: as §1

[7] = system: Digitaria sanguinalis (DIGSA); settings: Digitaria sanguinalis, post-emergence, 312 h; Application Rate 500 g/Ha; evaluated after 13 days; read-out: Control of weed species after post-emergence application, DIGSA (100=total damage to plant; 0=no damage to plant)
Summary of the method: as §1

[8] = system: Eleusine indica (ELEIN); settings: Eleusine indica, post-emergence, 312 h; Application Rate 500 g/Ha; evaluated after 13 days; read-out: Control of weed species after post-emergence application, ELEIN (100=total damage to plant; 0=no damage to plant)
Summary of the method: as §1

[9] = system: Chenopodium album (CHEAL); settings: Chenopodium album, post-emergence, 312 h; Application Rate 500 g/Ha; evaluated after 13 days; read-out: Control of weed species after post-emergence application, CHEAL (100=total damage to plant; 0=no damage to plant)
Summary of the method: as §1

SMILES: O=S(=O)([O-])CC[n+]1ccc(-c2ncsn2)cn1 [Compound A143]
- pest or weed control at 500 g/ha [1]: 90%
- pest or weed control at 500 g/ha [2]: 60%
- pest or weed control at 500 g/ha [3]: 100%
- pest or weed control at 500 g/ha [4]: 100%
- pest or weed control at 500 g/ha [5]: 100%
- pest or weed control at 500 g/ha [6]: 100%
- pest or weed control at 500 g/ha [7]: 100%
- pest or weed control at 500 g/ha [8]: 100%
- pest or weed control at 500 g/ha [9]: 90%

SMILES: Cc1nc(-c2cc[n+](CCS(=O)(=O)[O-])nc2)sc1C [Compound A17]
- pest or weed control at 500 g/ha [1]: 50%
- pest or weed control at 500 g/ha [2]: 30%
- pest or weed control at 500 g/ha [3]: 30%
- pest or weed control at 500 g/ha [4]: 40%
- pest or weed control at 500 g/ha [5]: 40%
- pest or weed control at 500 g/ha [6]: 50%
- pest or weed control at 500 g/ha [7]: 50%
- pest or weed control at 500 g/ha [8]: 60%
- pest or weed control at 500 g/ha [9]: 30%

SMILES: COc1cc(-c2cc[n+](CCS(=O)(=O)[O-])nc2)sn1 [Compound A34]
- pest or weed control at 500 g/ha [1]: 40%
- pest or weed control at 500 g/ha [2]: 20%
- pest or weed control at 500 g/ha [3]: 60%
- pest or weed control at 500 g/ha [4]: 30%
- pest or weed control at 500 g/ha [5]: 50%
- pest or weed control at 500 g/ha [6]: 20%
- pest or weed control at 500 g/ha [7]: 30%
- pest or weed control at 500 g/ha [8]: 20%
- pest or weed control at 500 g/ha [9]: 20%

SMILES: Cn1nncc1-c1cc[n+](CCC(=O)O)nc1 [Compound A48]
- pest or weed control at 500 g/ha [1]: 90%
- pest or weed control at 500 g/ha [2]: 90%
- pest or weed control at 500 g/ha [3]: 100%
- pest or weed control at 500 g/ha [4]: 90%
- pest or weed control at 500 g/ha [5]: 70%
- pest or weed control at 500 g/ha [6]: 40%
- pest or weed control at 500 g/ha [7]: 100%
- pest or weed control at 500 g/ha [8]: 70%
- pest or weed control at 500 g/ha [9]: 90%

SMILES: O=S(=O)([O-])CC(O)C[n+]1ccc(-c2ncco2)cn1 (stereo not drawn) [Compound A84]
- pest or weed control at 500 g/ha [1]: 50%
- pest or weed control at 500 g/ha [2]: 40%
- pest or weed control at 500 g/ha [3]: 100%
- pest or weed control at 500 g/ha [4]: 90%
- pest or weed control at 500 g/ha [5]: 70%
- pest or weed control at 500 g/ha [6]: 50%
- pest or weed control at 500 g/ha [7]: 70%
- pest or weed control at 500 g/ha [8]: 70%
- pest or weed control at 500 g/ha [9]: 90%

SMILES: O=C(O)CC[n+]1ccc(-c2cncs2)cn1 [Compound A122]
- pest or weed control at 500 g/ha [1]: 50%
- pest or weed control at 500 g/ha [2]: 30%
- pest or weed control at 500 g/ha [3]: 90%
- pest or weed control at 500 g/ha [4]: 70%
- pest or weed control at 500 g/ha [5]: 30%
- pest or weed control at 500 g/ha [6]: 20%
- pest or weed control at 500 g/ha [7]: 90%
- pest or weed control at 500 g/ha [8]: 70%
- pest or weed control at 500 g/ha [9]: 0%

SMILES: Cn1nnc(-c2cc[n+](CCS(=O)(=O)O)nc2)n1 [Compound A11]
- pest or weed control at 500 g/ha [1]: 100%
- pest or weed control at 500 g/ha [2]: 60%
- pest or weed control at 500 g/ha [3]: 100%
- pest or weed control at 500 g/ha [4]: 100%
- pest or weed control at 500 g/ha [5]: 100%
- pest or weed control at 500 g/ha [6]: 80%
- pest or weed control at 500 g/ha [7]: 90%
- pest or weed control at 500 g/ha [8]: 100%
- pest or weed control at 500 g/ha [9]: 90%

SMILES: Nc1nsc(-c2cc[n+](CCS(=O)(=O)[O-])nc2)n1 [Compound A141]
- pest or weed control at 500 g/ha [1]: 50%
- pest or weed control at 500 g/ha [2]: 100%
- pest or weed control at 500 g/ha [3]: 100%
- pest or weed control at 500 g/ha [4]: 100%
- pest or weed control at 500 g/ha [5]: 30%
- pest or weed control at 500 g/ha [6]: 30%
- pest or weed control at 500 g/ha [7]: 10%
- pest or weed control at 500 g/ha [8]: 10%
- pest or weed control at 500 g/ha [9]: 100%

SMILES: O=C(O)CC[n+]1ccc(-c2ccoc2)cn1 [Compound A43]
- pest or weed control at 500 g/ha [1]: 10%
- pest or weed control at 500 g/ha [2]: 20%
- pest or weed control at 500 g/ha [3]: 100%
- pest or weed control at 500 g/ha [4]: 80%
- pest or weed control at 500 g/ha [5]: 10%
- pest or weed control at 500 g/ha [6]: 0%
- pest or weed control at 500 g/ha [7]: 20%
- pest or weed control at 500 g/ha [8]: 10%
- pest or weed control at 500 g/ha [9]: 90%
